Data on twelve compounds can be found in PubChem BioAssay (NCI).

The structures appear in SMILES notation.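 48-hour exposure; five concentrations; linearly interpolated endpoints. GI50 marks 50% less growth. At the TGI there is no net growth.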

Some test systems named below: NCI/ADR-RES ovarian; DU-145 prostate; SK-MEL-2 melanoma; SNB-19 CNS; HT29 colon; HOP-62 NSCLC; UACC-62 melanoma; UO-31 renal; RXF 393 renal; K-562 leukemia; T-47D breast; HCC-2998 colon.
What all share (experiment): DTP human tumour cell line panel, 48 h

One may read the TGI as the concentration giving total growth inhibition. Read a high TGI as lower sensitivity of the cells. As to `CC1=NNC(=O)C1C1C=C(c2c[nH]c3ccccc23)OC1=O` (stereo not given), the TGI in the assay with NCI/ADR-RES ovarian, in the assay on DU-145 prostate, with SK-MEL-2 melanoma, with SNB-19 CNS, in the assay with HT29 colon and with HOP-62 NSCLC was more than 100 µM in each case. The concentration for total growth inhibition (TGI) in the assay on UACC-62 melanoma, with UO-31 renal, in the assay on RXF 393 renal, in the assay on K-562 leukemia and with T-47D breast was more than 100 µM throughout.
`COC(=O)C1=COC2OC3CC1C2C(C)O3` (stereo not given): the total growth inhibition concentration (TGI) in the assay on NCI/ADR-RES ovarian, with DU-145 prostate, in the assay with SK-MEL-2 melanoma, in the assay on HCC-2998 colon, in the assay with SNB-19 CNS and with HT29 colon was more than 100 µM each time. Moreover, the concentration for total growth inhibition (TGI) in the assay with HOP-62 NSCLC, in the assay on UACC-62 melanoma, in the assay with UO-31 renal, in the assay with RXF 393 renal and in the assay on T-47D breast was more than 100 µM each time.
With `CC12CCC(=O)[C@@]1(C)CCCC2O` (stereo not given in full), the TGI in the assay with NCI/ADR-RES ovarian, with DU-145 prostate, in the assay on SK-MEL-2 melanoma, in the assay on HCC-2998 colon, in the assay with SNB-19 CNS and in the assay on HT29 colon was more than 100 µM in each case. The total growth inhibition concentration (TGI) in the assay on HOP-62 NSCLC, in the assay on UACC-62 melanoma, with UO-31 renal, with K-562 leukemia and in the assay on T-47D breast was more than 100 µM in each case.
On to `CCOC(=O)CCc1ccc(NC(=O)/C=C/c2ccc([N+](=O)[O-])o2)cc1`, for which the TGI with NCI/ADR-RES ovarian is 5.37 µM; with DU-145 prostate, 6.39 µM; in the assay with SK-MEL-2 melanoma it was 4.82 µM; with HCC-2998 colon it was 7.61 µM; in the assay on SNB-19 CNS, more than 71.6 µM; in the assay on HT29 colon it was 3.43 µM. Besides, the TGI in the assay with HOP-62 NSCLC was 11 µM; in the assay with UACC-62 melanoma, more than 20.5 µM; in the assay with UO-31 renal, 3.08 µM; with RXF 393 renal it was 2.75 µM; in the assay with T-47D breast, 40.8 µM.
For the compound `CC(=O)N1N=C(c2ccc3ccccc3c2O)CC1c1ccc(N(C)C)cc1` (stereo not given), the total growth inhibition concentration (TGI) with NCI/ADR-RES ovarian, with DU-145 prostate, in the assay with SK-MEL-2 melanoma, with HCC-2998 colon, with HT29 colon and in the assay on HOP-62 NSCLC was more than 100 µM in each case. Also, the concentration for total growth inhibition (TGI) in the assay with UACC-62 melanoma, with UO-31 renal, in the assay on RXF 393 renal, with K-562 leukemia and in the assay with T-47D breast was more than 100 µM throughout.
For `Cc1ccc2c(c1)CC1(C2)Cc2ccc(C)cc2C1=O` (stereo not given), the TGI in the assay with NCI/ADR-RES ovarian is 62.6 µM; in the assay on DU-145 prostate, more than 100 µM; with SK-MEL-2 melanoma, 47.1 µM; with HCC-2998 colon, 85 µM; in the assay on SNB-19 CNS, more than 100 µM; in the assay with HT29 colon, 56.2 µM. The total growth inhibition concentration (TGI) is 97.8 µM in the assay with HOP-62 NSCLC; more than 100 µM in the assay with UO-31 renal; 54.4 µM in the assay on RXF 393 renal; more than 100 µM in the assay on K-562 leukemia; more than 100 µM with T-47D breast.
As for `Cc1nn(C(=O)c2ccc(Cl)cc2)c2c1C(c1ccc(Cl)cc1)SC(N)=N2` (stereo not given), the TGI in the assay on NCI/ADR-RES ovarian, with DU-145 prostate, in the assay on SK-MEL-2 melanoma, in the assay with HCC-2998 colon, in the assay with SNB-19 CNS and with HT29 colon was more than 10 µM throughout. Besides, the concentration for total growth inhibition (TGI) with HOP-62 NSCLC, in the assay with UACC-62 melanoma, in the assay on RXF 393 renal, with K-562 leukemia and with T-47D breast was more than 10 µM each time.
`CN1CCN(Cc2ccccc2)CC1CC#N` (stereo not given): the TGI with NCI/ADR-RES ovarian, in the assay on DU-145 prostate, in the assay on HCC-2998 colon, in the assay with SNB-19 CNS, with HT29 colon and in the assay on HOP-62 NSCLC was more than 100 µM in each case. In addition, the TGI with UACC-62 melanoma, in the assay on UO-31 renal, with RXF 393 renal, with K-562 leukemia and in the assay on T-47D breast was more than 100 µM throughout.
Consider `COc1cccc(CCn2c(N)c(C#N)c3ccc([N+](=O)[O-])cc3c2=O)c1`, for which the concentration for total growth inhibition (TGI) was more than 46.4 µM with NCI/ADR-RES ovarian; more than 46.4 µM with DU-145 prostate; more than 46.4 µM with SK-MEL-2 melanoma; more than 46.4 µM with HCC-2998 colon; more than 100 µM in the assay with SNB-19 CNS; more than 31.6 µM in the assay with HT29 colon. Further, the concentration for total growth inhibition (TGI) was more than 31.6 µM in the assay with HOP-62 NSCLC; more than 31.6 µM in the assay on UACC-62 melanoma; more than 46.4 µM in the assay on UO-31 renal; 11.6 µM in the assay on K-562 leukemia; more than 46.4 µM in the assay with T-47D breast.
Take `COC1(OC)C2C=CC1C([C@](C)(N)CO)C2` (stereo not given in full): the concentration for total growth inhibition (TGI) with DU-145 prostate, in the assay with HCC-2998 colon, in the assay with SNB-19 CNS, in the assay with HT29 colon, in the assay with HOP-62 NSCLC and in the assay with UACC-62 melanoma was more than 100 µM throughout. The total growth inhibition concentration (TGI) with UO-31 renal, with RXF 393 renal, in the assay with K-562 leukemia and with T-47D breast was more than 100 µM throughout.
Turning to `Cc1cnc2[nH]c(-c3ccc(Cl)cc3)cc(=O)c2c1`, the TGI was more than 26.3 µM in the assay with NCI/ADR-RES ovarian; more than 69.8 µM in the assay on DU-145 prostate; more than 100 µM with SK-MEL-2 melanoma; 70.1 µM in the assay on HCC-2998 colon; more than 100 µM in the assay with SNB-19 CNS; more than 39.1 µM in the assay with HT29 colon. Besides, the TGI in the assay with HOP-62 NSCLC is more than 100 µM; with UACC-62 melanoma it was more than 100 µM; with UO-31 renal, more than 60.5 µM; with K-562 leukemia it was 19.8 µM; in the assay with T-47D breast it was more than 100 µM.
For orientation: GI50 means the concentration that inhibits growth by half. For the compound `COc1cc([C@@H]2c3cc4c(cc3[C@@H](NC(=O)NO)[C@H]3COC(=O)[C@H]23)OCO4)cc(OC)c1O`, the TGI with NCI/ADR-RES ovarian was 93.1 µM; in the assay on DU-145 prostate it was more than 100 µM; with SK-MEL-2 melanoma it was more than 100 µM; with HCC-2998 colon, more than 100 µM; in the assay with SNB-19 CNS, more than 100 µM; in the assay on HOP-62 NSCLC, more than 100 µM. For the same compound, the TGI in the assay on K-562 leukemia and in the assay on T-47D breast was more than 100 µM each time. In addition, the GI50 with DU-145 prostate is 7.27 µM; in the assay with HCC-2998 colon, 4.06 µM.
